# What was measured:
# [1] = system: triple transgenic model of AD; conditions: cited from earlier work
# AMPK = AMPK phosphorylation (threonine 172) immunoblot in primary cortical neurons; type: cell-based, mouse; conditions: increasing concentrations 1-15 mM, 4 h
# Description: Whole cell proteins were extracted in Triton X-100 lysis buffer (1% Triton X-100, 1% SDS, 50 mM Tris-Cl, pH 7.4, 500 mM NaCl and 1 mM EDTA). Samples were boiled in Laemmli buffer and electrophoresed under reducing conditions on NuPAGER Novex 4-12% Bis-Tris Gel polyacrylamide gels (Invitrogen). Proteins were transferred to a nitrocellulose membrane (Bio-Rad) by electroblotting. Nonspecific binding was inhibited by incubation in Odyssey blocking buffer (LI-COR Biosciences). Antibodies against Glut3 (Abcam, Catalog no. AB41525, dilution 1:1000), actin (Sigma Aldrich, Catalog no. A5316, dilution 1:10000), BDNF (Santacruz Biotechnology, Catalog no. sc-546, dilution 1:10,000), tubulin (Sigma Aldrich, Catalog no. T8203, dilution 1:10000), p-AMPK (Cell Signaling Technology, Cat no. 2535L, dilution 1:1000), AMPK (Cell Signaling Technology, Cat no. 2532L, dilution 1:1000), GFP (Cell Signaling Technology, Cat no. 2555S, dilution 1:2000), elF2S1 (phospho S51) (Abcam, Catalog no. AB32157, dilution 1:500), and eIF2α (Cell Signaling Technology, Cat no. 9722, dilution 1:500) were diluted in odyssey blocking buffer and the membranes were incubated overnight at 4° C. […] Finally, proteins were detected using an Odyssey infrared imaging system (LI-COR Biosciences).
# HEK293 cell line = conditions: cited from earlier work
# Bdnf = Bdnf gene expression in mouse brain cortex after intraperitoneal injection; type: in vivo
# [2] = system: Creba, Crebb, Bdnf exon IV; assay: Plasticity gene expression in human i.p.s. derived mature cortical neurons; type: cell-based; conditions: increasing concentrations, 6 h
# Description: Human iPSC line (C1-1) was previously generated from skin biopsy samples of newborn and had been fully characterized and passaged on MEF feeder layers (Wen et al. 2014). All studies followed institutional IRB and ISCRO protocols approved by University of Pennsylvania Perelman School of Medicine. Human iPSCs were differentiated into cortical neurons following the previously established protocol (Wen et al. 2014). Briefly, hiPSCs colonies were detached from the feeder layer with 1 mg/ml collagenase (Thermo Fisher Scientific) treatment for 30 min and suspended in embryonic body (EB) medium, consisting of bFGF-free iPSC medium supplemented with 2 μM Dorsomorphin (Tocris) and 2 μM A-83 (Tocris), in non-treated polystyrene plates for 4 days with a daily medium change. […]
# The gene expression of Bndf exon IV, Creba and Crebb in human i.p.s. derived neurons were also assessed using two step qPCR. […] Quantitative RT-PCR was then performed using SYBR green (Applied Biosystems) and the StepOnePlus™ Real-Time PCR System (Applied Biosystems). Quantitative levels for all genes were normalized to the housekeeping gene GAPDH and expressed relative to the relevant control samples. […]
# human Bdnf promoters = assay: Human Bdnf promoter luciferase reporters in HT22 cells; type: cell-based, mouse; conditions: 10 mM, 6 h
# JTC-19 line = conditions: JTC-19 lung cancer line; cited from earlier work
# ATF4 = assay: In vivo bioluminescence imaging of 5′UTR ATF4 luciferase reporter in mouse brain; conditions: 10 mg/Kg intraperitoneally for 4 h
smiles,measurement,setting,value
"OC[C@H]1OC(O)C[C@@H](O)[C@@H]1O (stereo partly drawn) [2-DG, (4R,5S,6R)-6-(hydroxymethyl)oxane-2,4,5-triol]",brain energy metabolism and amyloid pathology,[1],improve brain energy metabolism and amyloid pathology
same,level of AMPK phosphorylation at threonine 172,AMPK,biphasic
same,Bdnf gene expression,HEK293 cell line,inhibit the Bdnf gene expression
same,Bdnf gene expression in mouse brain cortex,Bdnf; 10 mg/Kg intraperitoneal injection for 6 h,significant increase
same,driving the adaptive plasticity program,Bdnf; intraperitoneal injection at 10 mg/Kg,sufficient in driving the adaptive plasticity program
same,"gene plasticity response (Creba, Crebb, Bdnf exon IV mRNA)",[2],gene plasticity response of neurons was still the same
same,promoter activity of nine human Bdnf promoters,human Bdnf promoters,all Bdnf promoters except Bdnf promoter VI were significantly upregulated
same,Bdnf gene expression,JTC-19 line,inhibit the Bdnf gene expression
same,ATF4 translation in the mouse brain (luciferase activity),ATF4,significant increase

# Reference: patent US20240197760A1, “ACTIVATORS OF INTEGRATED STRESS RESPONSE PATHWAY FOR PROTECTION AGAINST FERROPTOSIS” (Burke Neurological Institute, priority 2021, published 2024)
